target: T1, Adrenergic receptor alpha-1 (Rattus norvegicus, UniProt P15823+P23944+P43140); assay: Compound was evaluated for inhibition of [3H]prazosin binding to Alpha-1 adrenergic receptor in rat forebrain homogenate.; type: tissue-based, Brain
T1 sequence (P15823 whole entry): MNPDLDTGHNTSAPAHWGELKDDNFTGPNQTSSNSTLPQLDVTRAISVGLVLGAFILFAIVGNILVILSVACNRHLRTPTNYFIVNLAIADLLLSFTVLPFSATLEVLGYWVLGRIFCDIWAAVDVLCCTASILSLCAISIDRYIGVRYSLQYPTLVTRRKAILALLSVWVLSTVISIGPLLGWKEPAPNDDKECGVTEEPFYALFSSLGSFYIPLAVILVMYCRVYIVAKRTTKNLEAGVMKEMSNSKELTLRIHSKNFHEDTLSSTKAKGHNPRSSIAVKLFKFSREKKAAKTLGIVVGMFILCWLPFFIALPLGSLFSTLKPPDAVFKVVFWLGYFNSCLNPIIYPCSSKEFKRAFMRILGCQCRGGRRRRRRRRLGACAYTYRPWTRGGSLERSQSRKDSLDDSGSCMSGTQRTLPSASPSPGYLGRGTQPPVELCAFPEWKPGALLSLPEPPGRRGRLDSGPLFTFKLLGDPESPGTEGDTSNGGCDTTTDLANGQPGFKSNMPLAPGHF
T1 sequence (P23944 whole entry): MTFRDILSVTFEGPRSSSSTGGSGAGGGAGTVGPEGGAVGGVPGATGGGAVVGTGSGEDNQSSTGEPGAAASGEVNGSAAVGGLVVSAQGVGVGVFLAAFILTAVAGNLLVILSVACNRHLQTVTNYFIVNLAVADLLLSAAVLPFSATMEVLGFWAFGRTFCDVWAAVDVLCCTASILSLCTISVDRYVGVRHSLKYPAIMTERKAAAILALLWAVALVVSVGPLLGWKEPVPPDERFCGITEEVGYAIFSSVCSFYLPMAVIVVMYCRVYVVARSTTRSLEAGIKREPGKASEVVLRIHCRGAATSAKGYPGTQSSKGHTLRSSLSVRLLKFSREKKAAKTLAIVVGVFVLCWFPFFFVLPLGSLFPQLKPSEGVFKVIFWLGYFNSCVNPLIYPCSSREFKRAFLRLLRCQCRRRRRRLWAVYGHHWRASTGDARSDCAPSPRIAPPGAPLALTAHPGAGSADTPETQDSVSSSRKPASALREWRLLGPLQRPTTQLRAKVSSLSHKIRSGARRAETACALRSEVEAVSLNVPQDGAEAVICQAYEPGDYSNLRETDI
T1 sequence (P43140 whole entry): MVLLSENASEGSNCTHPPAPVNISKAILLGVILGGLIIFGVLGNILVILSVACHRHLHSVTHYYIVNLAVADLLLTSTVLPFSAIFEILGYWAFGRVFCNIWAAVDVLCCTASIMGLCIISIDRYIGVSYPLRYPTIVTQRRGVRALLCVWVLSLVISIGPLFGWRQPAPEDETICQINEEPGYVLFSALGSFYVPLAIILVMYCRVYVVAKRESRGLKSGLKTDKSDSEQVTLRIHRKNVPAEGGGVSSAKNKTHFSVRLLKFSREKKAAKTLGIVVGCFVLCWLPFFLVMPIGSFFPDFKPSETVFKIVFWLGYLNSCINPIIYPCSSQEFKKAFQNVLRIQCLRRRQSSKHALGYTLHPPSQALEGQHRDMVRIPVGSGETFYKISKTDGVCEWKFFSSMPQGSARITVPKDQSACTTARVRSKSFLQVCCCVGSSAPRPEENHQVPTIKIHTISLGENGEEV

SMILES	Ki
CN[C@H](C)[C@@H](O)c1ccc(O)c(O)c1	11 µM
CN[C@@H](C)[C@H](O)c1ccc(O)c(O)c1	146 µM
C[C@H](N)[C@H](O)c1ccc(O)c(O)c1 (stereo in doubt; 1) [LEVONORDEFRIN]	7.3 µM
C[C@H](N)[C@H](O)c1ccc(O)c(O)c1 (stereo in doubt; form 1) [LEVONORDEFRIN]	3.6 µM
C[C@H](N)[C@H](O)c1ccc(O)c(O)c1 (stereo in doubt; form 2) [LEVONORDEFRIN]	2315 µM
CNC(C)C(O)c1ccc(O)c(O)c1 (stereo unspecified) [DIOXIFEDRINE]	28 µM

Reference: ChEMBL document CHEMBL1121888, “(alpha S)-erythro-alpha-methylepinephrine: preparation and stereoselective binding to adrenergic receptors in rat forebrain” (J Med Chem, 1981)
